Measurements: patent publication US20200239530A1, “COMPOUNDS AND METHODS OF MODULATING PROTEIN DEGRADATION” (Vividion Therapeutics, Inc., priority 2017, published 2020)

Columns and labels:
Test in all cases: Cysteine liganding, probe competition
Format in all cases: binding
[1] = target: T1, BIRC2 Baculoviral IAP repeat-containing protein 2 (Homo sapiens, UniProt Q13490); details: for Liganded: BIRC2 Res# 45, uniprot Q13490
T1 construct: Cells were resuspended in cold PBS on ice and sonicated with a probe sonicator to achieve lysis; endogenous in cells
In short: (§1)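 Steps: sonicate cells in cold PBS; treat 5 mg/ml lysate with compound (25° C, 1 hr); add desthiobiotin iodoacetamide probe from a 10 mM stock (25° C, 1 hr); precipitate, reduce, alkylate, digest with trypsin; capture labelled peptides on streptavidin for analysis.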

[2] = target: T2, ZNF318 Zinc finger protein 318 (Homo sapiens, UniProt Q5VUA4)
T2 construct: Cells were resuspended in cold PBS on ice and sonicated with a probe sonicator to achieve lysis; endogenous in cells
In short: as §1

[3] = target: T3, RING1 E3 ubiquitin-protein ligase RING1 (Homo sapiens, UniProt Q06587)
T3 construct: Cells were resuspended in cold PBS on ice and sonicated with a probe sonicator to achieve lysis; endogenous in cells
T3 sequence (Q06587 1-406): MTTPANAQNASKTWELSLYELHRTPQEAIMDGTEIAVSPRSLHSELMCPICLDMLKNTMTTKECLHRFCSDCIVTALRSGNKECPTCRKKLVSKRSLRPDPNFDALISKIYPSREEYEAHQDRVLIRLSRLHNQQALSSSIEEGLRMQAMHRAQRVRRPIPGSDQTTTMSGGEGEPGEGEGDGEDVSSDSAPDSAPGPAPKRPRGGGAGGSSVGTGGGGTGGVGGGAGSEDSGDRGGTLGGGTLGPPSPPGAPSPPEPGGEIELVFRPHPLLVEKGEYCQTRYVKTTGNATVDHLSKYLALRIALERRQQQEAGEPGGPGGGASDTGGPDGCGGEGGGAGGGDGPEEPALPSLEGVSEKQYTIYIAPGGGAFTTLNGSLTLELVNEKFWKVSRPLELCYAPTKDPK
In short: as §1

[4] = target: T4, FASTKD5 FAST kinase domain-containing protein 5 (Homo sapiens, UniProt Q7L8L6)
T4 construct: 200 μL of lysate containing 5 mg/ml proteome was treated with 2 μL of 100× compound stock; endogenous in cells
T4 sequence (Q7L8L6 28-764): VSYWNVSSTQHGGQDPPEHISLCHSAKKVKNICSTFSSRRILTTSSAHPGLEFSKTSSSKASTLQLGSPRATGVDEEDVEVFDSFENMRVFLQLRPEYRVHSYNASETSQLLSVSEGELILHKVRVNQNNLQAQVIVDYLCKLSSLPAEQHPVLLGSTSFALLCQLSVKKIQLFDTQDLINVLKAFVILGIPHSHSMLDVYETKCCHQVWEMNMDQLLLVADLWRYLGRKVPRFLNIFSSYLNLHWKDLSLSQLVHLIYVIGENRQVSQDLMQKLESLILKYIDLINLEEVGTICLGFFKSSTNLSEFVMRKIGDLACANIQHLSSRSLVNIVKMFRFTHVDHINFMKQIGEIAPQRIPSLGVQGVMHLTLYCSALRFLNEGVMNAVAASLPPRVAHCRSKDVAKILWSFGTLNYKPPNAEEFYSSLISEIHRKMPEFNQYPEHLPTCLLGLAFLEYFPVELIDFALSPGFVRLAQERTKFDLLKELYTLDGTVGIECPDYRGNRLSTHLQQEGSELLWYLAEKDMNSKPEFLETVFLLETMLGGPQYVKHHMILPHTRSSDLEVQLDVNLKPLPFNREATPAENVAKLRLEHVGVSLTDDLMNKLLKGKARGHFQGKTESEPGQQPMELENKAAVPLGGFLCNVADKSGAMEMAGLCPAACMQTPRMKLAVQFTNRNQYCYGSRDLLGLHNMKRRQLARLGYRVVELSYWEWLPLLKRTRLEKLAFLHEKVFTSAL
In short: as §1

T1 sequence (Q13490 whole entry): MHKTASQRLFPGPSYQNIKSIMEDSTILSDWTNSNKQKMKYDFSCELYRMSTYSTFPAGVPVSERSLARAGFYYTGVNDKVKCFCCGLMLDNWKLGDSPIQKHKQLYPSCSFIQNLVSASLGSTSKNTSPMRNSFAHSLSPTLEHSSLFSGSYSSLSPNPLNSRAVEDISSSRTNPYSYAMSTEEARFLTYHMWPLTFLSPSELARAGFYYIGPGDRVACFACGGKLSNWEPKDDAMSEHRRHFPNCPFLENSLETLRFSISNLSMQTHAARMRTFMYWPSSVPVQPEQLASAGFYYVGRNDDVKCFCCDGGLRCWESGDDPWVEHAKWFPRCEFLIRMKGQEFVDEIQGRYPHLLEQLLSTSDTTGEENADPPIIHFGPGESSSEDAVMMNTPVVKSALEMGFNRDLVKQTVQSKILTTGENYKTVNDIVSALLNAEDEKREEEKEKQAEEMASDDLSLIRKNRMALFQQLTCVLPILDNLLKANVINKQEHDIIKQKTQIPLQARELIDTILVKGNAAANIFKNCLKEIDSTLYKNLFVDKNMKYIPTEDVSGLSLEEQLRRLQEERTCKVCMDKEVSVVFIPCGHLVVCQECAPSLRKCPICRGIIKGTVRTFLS
T2 sequence (Q5VUA4 whole entry): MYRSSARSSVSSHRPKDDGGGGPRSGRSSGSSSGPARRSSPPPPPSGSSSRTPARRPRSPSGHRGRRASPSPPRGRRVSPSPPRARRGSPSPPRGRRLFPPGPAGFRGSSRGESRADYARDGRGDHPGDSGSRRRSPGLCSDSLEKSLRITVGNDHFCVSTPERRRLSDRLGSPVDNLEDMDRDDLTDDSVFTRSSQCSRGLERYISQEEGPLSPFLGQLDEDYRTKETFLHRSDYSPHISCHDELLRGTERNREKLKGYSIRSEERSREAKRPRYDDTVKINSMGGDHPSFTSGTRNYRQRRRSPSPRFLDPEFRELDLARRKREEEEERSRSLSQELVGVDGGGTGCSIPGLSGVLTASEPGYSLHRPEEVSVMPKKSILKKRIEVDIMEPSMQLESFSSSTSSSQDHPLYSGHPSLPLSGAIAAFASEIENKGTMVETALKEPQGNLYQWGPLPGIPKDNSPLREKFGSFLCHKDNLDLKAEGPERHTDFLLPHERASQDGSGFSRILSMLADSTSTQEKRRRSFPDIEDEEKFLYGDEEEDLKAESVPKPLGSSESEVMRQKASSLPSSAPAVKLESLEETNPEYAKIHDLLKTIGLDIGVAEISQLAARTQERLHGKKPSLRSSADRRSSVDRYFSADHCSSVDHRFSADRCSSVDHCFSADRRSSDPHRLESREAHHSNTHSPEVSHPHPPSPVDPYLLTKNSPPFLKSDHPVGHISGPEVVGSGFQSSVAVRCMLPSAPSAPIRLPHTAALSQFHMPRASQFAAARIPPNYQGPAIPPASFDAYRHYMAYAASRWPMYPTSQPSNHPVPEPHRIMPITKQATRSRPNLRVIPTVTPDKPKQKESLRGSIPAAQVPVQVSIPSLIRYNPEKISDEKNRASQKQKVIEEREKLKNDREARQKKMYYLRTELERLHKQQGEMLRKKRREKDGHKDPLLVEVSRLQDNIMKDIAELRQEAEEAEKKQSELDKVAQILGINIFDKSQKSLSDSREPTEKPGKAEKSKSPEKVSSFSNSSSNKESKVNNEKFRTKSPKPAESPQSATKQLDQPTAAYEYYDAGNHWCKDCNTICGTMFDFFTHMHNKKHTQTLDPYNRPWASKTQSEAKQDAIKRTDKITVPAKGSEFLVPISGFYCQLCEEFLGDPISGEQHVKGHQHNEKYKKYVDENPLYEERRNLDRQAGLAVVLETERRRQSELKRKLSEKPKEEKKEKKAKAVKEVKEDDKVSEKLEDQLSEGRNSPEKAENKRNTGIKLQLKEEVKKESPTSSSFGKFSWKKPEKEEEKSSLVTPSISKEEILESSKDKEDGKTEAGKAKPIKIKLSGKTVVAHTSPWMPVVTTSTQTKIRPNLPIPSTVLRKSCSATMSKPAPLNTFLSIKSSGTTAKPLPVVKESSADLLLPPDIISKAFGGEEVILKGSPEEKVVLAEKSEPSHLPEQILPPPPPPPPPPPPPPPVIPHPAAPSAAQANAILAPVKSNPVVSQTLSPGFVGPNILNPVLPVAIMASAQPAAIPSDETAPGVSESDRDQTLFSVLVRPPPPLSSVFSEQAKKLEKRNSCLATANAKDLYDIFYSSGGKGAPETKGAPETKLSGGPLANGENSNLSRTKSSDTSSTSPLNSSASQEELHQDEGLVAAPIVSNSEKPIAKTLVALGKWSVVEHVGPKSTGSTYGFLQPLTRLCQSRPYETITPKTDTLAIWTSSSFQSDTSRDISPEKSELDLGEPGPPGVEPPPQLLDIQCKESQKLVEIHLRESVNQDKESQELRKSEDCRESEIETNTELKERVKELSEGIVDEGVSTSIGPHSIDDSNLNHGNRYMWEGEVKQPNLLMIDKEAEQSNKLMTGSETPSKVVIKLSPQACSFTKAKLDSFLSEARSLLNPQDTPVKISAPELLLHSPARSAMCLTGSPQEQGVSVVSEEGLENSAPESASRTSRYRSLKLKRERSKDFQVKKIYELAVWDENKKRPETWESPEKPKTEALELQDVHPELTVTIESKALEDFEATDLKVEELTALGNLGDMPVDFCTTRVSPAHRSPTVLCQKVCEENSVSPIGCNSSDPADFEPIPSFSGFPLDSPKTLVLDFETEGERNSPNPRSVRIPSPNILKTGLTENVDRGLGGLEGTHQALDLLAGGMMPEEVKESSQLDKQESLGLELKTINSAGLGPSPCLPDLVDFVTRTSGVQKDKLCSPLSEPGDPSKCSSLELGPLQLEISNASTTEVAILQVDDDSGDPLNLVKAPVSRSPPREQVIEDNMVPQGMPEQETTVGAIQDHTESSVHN

| Structure (SMILES) | Liganded [1] | 100 Max ([1]; uniprot Q13490) | 100 ave ([1]; uniprot Q13490) | 500 Max ([1]; uniprot Q13490) | 500 ave ([1]; uniprot Q13490) | 100 Max ([2]; uniprot Q5VUA4) | 100 ave ([2]; uniprot Q5VUA4) | 500 Max ([2]; uniprot Q5VUA4) | 500 ave ([2]; uniprot Q5VUA4) | Liganded ([3]; RING1 Res# 51, uniprot Q06587) | Liganded ([3]; RING1 Res# 72, uniprot Q06587) | 100 Max ([3]; uniprot Q06587) | 100 ave ([3]; uniprot Q06587) | 100 Max ([4]; uniprot Q7L8L6) | 100 ave ([4]; uniprot Q7L8L6) | 500 Max ([4]; uniprot Q7L8L6) | 500 ave ([4]; uniprot Q7L8L6) | Liganded ([2]; ZNF318 Res# 1681, uniprot Q5VUA4) | Liganded ([4]; FASTKD5 Res# 670, uniprot Q7L8L6) |
| --- | --- | --- | --- | --- | --- | --- | --- | --- | --- | --- | --- | --- | --- | --- | --- | --- | --- | --- | --- |
| O=C(CCl)Nc1cc(C(F)(F)F)cc(C(F)(F)F)c1 [KBO3] | YES | 47.9 | 41.4 | 92.0 | 85.9 | −1.63 | −8.115 | 55.07 | 40.555 | YES | YES | 18.1 | 0.5 | 14.75 | 14.55 | 57.23 | 45.06 | – | – |
| COc1ccc2c(c1)CCCN2C(=O)CCl [KB02] | YES | – | – | – | – | – | – | – | – | – | YES | – | – | – | – | – | – | YES | YES |
